Experimental data as given in patent US10603357B2, “Therapeutic TREM-1 peptides” (Universite de Lorraine, priority 2004, dated 2020).

Tested on: BALB/c mice
Assay: CLP polymicrobial sepsis model in mice (Example 3)
Assay type: in vivo, mouse
Details: for Serum IL-1β / Serum TNF-α / Serum sTREM-1: 24 hours after CLP
Experimental: Male Balb/C mice (20 to 23 g) were randomly grouped and treated with normal saline (n=14) or the control peptide (n=14, 100 μg) or with P5 (100 μg) in a single infection at HO (n=18), H+4 (n=18) or H+24 (n=18). The last group of mice (n=18) was treated with repeated injections of P5 (100 μg) at H+4, H+8 and H+24.
Mice (n=15 per group) were treated with a single injection of normal saline or 10 μg, 20 μg, 50 μg, 100 μg or 200 μg of P5 at HO after the CLP and monitored for survival.
Mice (5 per group) were killed under anaesthesia at 24 hours after CLP. Bacterial counts in peritoneal lavage fluid and blood were determined and results are expressed as CFU per mL of blood and CFU per mouse for the peritoneal lavage.
Male Balb/C mice (7 to 9 weeks, 20 to 23 g) were anaesthetized by i.p. administration of ketamine and xylazine in 0.2 mL sterile pyrogen-free saline. The caecum was exposed through a 1.0 cm abdominal midline incision and subjected to a ligation of the distal half followed by two punctures with a G21 needle. A small amount of stool was expelled from the punctures to ensure patency. The caecum was replaced into the peritoneal cavity and the abdominal incision closed in two layers. After surgery all mice were injected s.c. with 0.5 ml of physiologic saline solution for fluid resuscitation and s.c. every 12 h with 1.25 mg (i.e. 50 μg/g) of imipenem. The animals were randomly grouped and treated with normal saline (n=14), the control peptide (n=14, 100 μg) or P5 (100 μg) in a single injection at HO (n=18), H+4 (n=18) or H+24 (n=18). The last group of mice (n=18) was treated with repeated injections of P5 (100 μg) at H+4, H+8 and H+24. All treatments were diluted into 500 μl of normal saline and administered i.p. The Inventors next sought to determine the effect of various doses of P5. For this purpose, mice (n=15 per group) were treated with a single injection of normal saline or 10 μg, 20 μg, 50 μg 100 μg or 200 μg of P5 at HO after the CLP and monitored for survival. Five additional animals per group were killed under anaesthesia 24 hours after CLP for the determination of bacterial count and cytokines levels. Peritoneal lavage fluid was obtained using 2 mL RPMI 1640 (Life Technologies) and blood was collected by cardiac puncture. Concentrations of TNF-α and IL-1β in the serum were determined by ELISA (BD Biosciences). For the assessment of bacterial counts, blood and peritoneal lavage fluid were plated in serial log dilutions on tryptic soy supplemented with 5% sheep blood agar plates. After plating, tryptic soy agar plates were incubated at 37° C. aerobically for 24 hours, and anaerobically for 48 hours. Results are expressed as CFU per mL of blood and CFU per mouse for the peritoneal lavage.

Sequence: LQVTDSGLYRCVIYHPP [P5]
- effect on survival of repeated injections (100 μg at H+4, H+8 and H+24 after CLP): more favourable effect on survival
- Serum IL-1β (10 μg at H0): 356 ± 62 pg/mL
- Serum TNF-α (10 μg at H0): 110 ± 11 pg/mL
- Serum sTREM-1 (10 μg at H0): 43 ± 8 ng/mL
- Serum IL-1β (20 μg at H0): 324 ± 58 pg/mL
- Serum TNF-α (20 μg at H0): 89 ± 10 pg/mL
- Serum sTREM-1 (20 μg at H0): 58 ± 8 ng/mL
- Serum IL-1β (50 μg at H0): 57 ± 11 pg/mL
- Serum TNF-α (50 μg at H0): 24 ± 6 pg/mL
- Serum sTREM-1 (50 μg at H0): 93 ± 10 ng/mL
- Serum IL-1β (100 μg at H0): 31 ± 3 pg/mL
- Serum TNF-α (100 μg at H0): 20 ± 3 pg/mL
- Serum sTREM-1 (100 μg at H0): 118 ± 12 ng/mL
- Serum IL-1β (200 μg at H0): 37 ± 8 pg/mL
- Serum TNF-α (200 μg at H0): 21 ± 7 pg/mL
- Serum sTREM-1 (200 μg at H0): 158 ± 13 ng/mL
